What all share (type): physicochemical
The nature of series [1]: thermodynamic investigations (thermomicroscopy, X-ray powder diffractometry, DSC, solubility tests) of crystal modifications. To be noted: for thermodynamic stability: comparison of the crystal modifications A/A′, B and C. The source says: The modification A or A′ has significant advantages compared with the modification B and compared with the modification C.
Series [2] can be described thus: dissolution rate in water. To be noted: comparison between modifications.
Series [3] can be described thus: dissolution rate in gastric fluid. To be noted: comparison between modifications.

The values below come from patent publication US7750028B2, “Crystal modifications of 1-(2,6-difluorobenzyl)-1H-1, 2,3-triazole-4-carboxamide” (Novartis AG, priority 1997, dated 2010).

Consider `NC(=O)c1cn(Cc2c(F)cccc2F)nn1` [modification C, 1-(2,6-difluorobenzyl)-1H-1,2,3-triazole-4-carboxamide], for which the “conversion of the crystals into modification B” value in series [1] (at as low as room temperature) is recorded as “within a few weeks”. Moreover, the thermodynamic stability result in series [1] (listed as Modification C) is on record as “the least stable of the three modifications”. Further, in series [1] (depending on experimental conditions), the “conversion into other modifications” value is on record as “converted either into the modification A or A′ or into the modification B”.
For `NC(=O)c1cn(Cc2c(F)cccc2F)nn1` [modification A′, 1-(2,6-difluorobenzyl)-1H-1,2,3-triazole-4-carboxamide], in series [1] (listed as A′), the thermodynamic stability entry is “substantially better thermodynamic stability than the modifications B and C”. The dissolution rate entry in series [2] and in series [3] was “slower dissolution rate” throughout.
`NC(=O)c1cn(Cc2c(F)cccc2F)nn1` [modification A, 1-(2,6-difluorobenzyl)-1H-1,2,3-triazole-4-carboxamide]: in series [1], the thermodynamic stability result was “substantially better thermodynamic stability than the modifications B and C”. For the same molecule, the dissolution rate result in series [2] and in series [3] was “slower dissolution rate” in each case.
Take `NC(=O)c1cn(Cc2c(F)cccc2F)nn1` [modification B, 1-(2,6-difluorobenzyl)-1H-1,2,3-triazole-4-carboxamide]: the dissolution rate result in series [2] and in series [3] was “substantially faster dissolution rate” each time.
